Values of other authors, collected in patent US20140227371A1, “EDIBLE COMPOSITION” (priority 2011, published 2014).

How the values were obtained:
rat liver = settings: through activation of the β-oxidation system, Tsuduki et al. 2009
[1] = alcohol-induced steatosis and steatohepatitis models; Kang et al. 2005

| Compound | Lipid accumulation (rat liver) | Hepatoprotective effects [1] |
| --- | --- | --- |
| OC[C@H]1NC[C@H](O)[C@@H](O)[C@@H]1O [1-Deoxynojirimycin] | suppress lipid accumulation | – |
| [Zn] [Zinc] | – | hepatoprotective effects |
